The numbers were not newly measured in patent US9186326B2 (Kimia Zist Parsian (KZP), priority 2014, dated 2015), which cites them from elsewhere.

The subject of this data set is glucocorticoid effect.

For the substance Dexamethasone, the mineral corticoid effect result was “minimal mineral corticoid effect”. The “potency relative to cortisol in glucocorticoid effect” value (versus cortisol) is “twenty five”.
